For 26 compounds, chromatographic logP results are on record in patent US7932283B2, “Fungicide N-cyclopropyl-sulfonylamide derivatives” (Bayer Cropscience AG, priority 2006, dated 2011).

One data set is described as follows: logP by HPLC on reversed-phase column (C 18), EEC Directive 79/B31 Annex V.A8, methods A and B. In kind it is physicochemical. As to conditions: reversed-phase HPLC column (C 18), HPLC reversed-phase C 18, method B: 40° C., 0.1% aqueous formic acid and acetonitrile, linear gradient 10% to 90% acetonitrile. The procedure:
Calibration was carried out using unbranched alkan-2-ones (having 3 to 16 carbon atoms) with known logP values (determination of the logP values by the retention times using linear interpolation between two successive alkanones).
The term chromatographic logP denotes a lipophilicity value derived from retention on a column. The compound `Cn1nc(C(F)(F)F)c(C(=O)N(C2CC2)S(=O)(=O)c2ccc(F)cc2Br)c1F` [Compound 368] came in with a chromatographic logP of 3.2.

Regarding `Cn1nc(C(F)(F)F)c(C(=O)N(C2CC2)S(=O)(=O)c2ccccc2I)c1F` [Compound 369], the chromatographic logP amounted to 3.

`Cn1nc(C(F)(F)F)c(C(=O)N(C2CC2)S(=O)(=O)c2ccc(Oc3ccccc3)cc2)c1F` [Compound 370] had a chromatographic logP of 3.9.

For `Cn1nc(C(F)(F)F)c(C(=O)N(C2CC2)S(=O)(=O)c2ccc(Oc3cccc(C#N)c3Cl)cc2)c1F` [Compound 371], the chromatographic logP was 3.7.

On to `Cn1nc(C(F)(F)F)c(C(=O)N(C2CC2)S(=O)(=O)c2ccc(Oc3ncc(C(F)(F)F)cc3O)cc2)c1F` [Compound 372], for which the chromatographic logP was determined as 4.2.

`Cn1nc(C(F)(F)F)c(C(=O)N(C2CC2)S(=O)(=O)c2c(O)cc(C(F)(F)F)cc2O)c1F` [Compound 373] registered a chromatographic logP of 3.9.

In the case of `CCc1nn(C)c(F)c1C(=O)N(C1CC1)S(=O)(=O)c1cc(O)cc(O)c1` [Compound 376], the chromatographic logP is 3.9.

With `CCc1nn(C)c(F)c1C(=O)N(C1CC1)S(=O)(=O)c1ccc(O)c(O)c1` [Compound 378], the chromatographic logP stood at 3.8.

The compound `CCc1nn(C)c(F)c1C(=O)N(C1CC1)S(=O)(=O)c1c(O)cc(O)cc1O` [Compound 379] showed a chromatographic logP of 3.6.

`CCc1nn(C)c(F)c1C(=O)N(C1CC1)S(=O)(=O)c1c(C)nn(C)c1O` [Compound 382] showed a chromatographic logP of 2.3.

For `CCCCc1ccc(S(=O)(=O)N(C(=O)c2c(CC)nn(C)c2F)C2CC2)cc1` [Compound 383], the chromatographic logP was determined as 4.2.

Compound `CCc1nn(C)c(F)c1C(=O)N(C1CC1)S(=O)(=O)c1cc(C(F)(F)F)ccc1O` [Compound 384] gave a chromatographic logP of 3.5.

For the compound `CCc1nn(C)c(F)c1C(=O)N(C1CC1)S(=O)(=O)c1ccc(Br)cc1O` [Compound 385], the chromatographic logP was found to be 3.4.

In the case of `CCc1nn(C)c(F)c1C(=O)N(C1CC1)S(=O)(=O)c1ccc(OC)c(OC)c1` [Compound 386], the chromatographic logP was determined as 2.5.

`CCc1nn(C)c(F)c1C(=O)N(C1CC1)S(=O)(=O)c1ccc(Oc2cccc(C(F)(F)F)c2)cc1` [Compound 388] yielded a chromatographic logP of 4.2.

In turn, `CCc1nn(C)c(F)c1C(=O)N(C1CC1)S(=O)(=O)c1ccc(Oc2ccc(C(F)(F)F)cc2)cc1` [Compound 389] came in with a chromatographic logP of 4.3. The chromatographic logP values of the last two compounds are within 0.2 log units of each other.

With `CCc1nn(C)c(F)c1C(=O)N(C1CC1)S(=O)(=O)c1ccc(Oc2ccc(Br)cc2)cc1` [Compound 390], the chromatographic logP worked out at 4.4.

In turn, `CCc1nn(C)c(F)c1C(=O)N(C1CC1)S(=O)(=O)c1ccc(Oc2ccc(O)cc2)cc1` [Compound 391] gave a chromatographic logP of 4.2.

For `COc1ccc(S(=O)(=O)N(C(=O)c2cn(C)nc2OC)C2CC2)cc1OC` [Compound 395], the chromatographic logP was 1.9.

Staying with this data set, now noted: reversed-phase HPLC column (C 18), LogP method A: HPLC reversed-phase C 18, 43° C., 0.1% aqueous phosphoric acid / acetonitrile, linear gradient 10% to 90% acetonitrile.
In the case of `Cc1nn(C)c(Oc2cccc(O)c2)c1C(=O)N(C1CC1)S(=O)(=O)c1cccc(O)c1` [Compound 399], the chromatographic logP worked out at 3.94.

In turn, `Cc1nn(C)c(Oc2cccc(Cl)c2)c1C(=O)N(C1CC1)S(=O)(=O)c1ccc(C(F)(F)F)cc1` [Compound 400] displayed a chromatographic logP of 4.13. The chromatographic logP values of the last two compounds are within 0.2 log units of each other.

Compound `Cc1n[nH]c(C)c1C(=O)N(C1CC1)S(=O)(=O)c1cccc(Cl)c1` [Compound 401] came in with a chromatographic logP of 2.45.

`Cc1n[nH]c(C)c1C(=O)N(C1CC1)S(=O)(=O)c1ccc(C(F)(F)F)cc1` [Compound 402] returned a chromatographic logP of 2.5. This chromatographic logP and that of the compound before are within 0.2 log units of each other.

Turning to `Cc1nn(C)c(C)c1C(=O)N(C1CC1)S(=O)(=O)c1ccc(C(F)(F)F)cc1` [Compound 403], the chromatographic logP is 3.

For `Cc1nn(C)c(Oc2cccc(Cl)c2)c1C(=O)N(C1CC1)S(=O)(=O)c1ccc(O)c(C(F)(F)F)c1` [Compound 404], the chromatographic logP came out at 4.56.

`Cc1nn(C)c(Oc2cccc(O)c2)c1C(=O)N(C1CC1)S(=O)(=O)c1ccc(O)c(O)c1` [Compound 405] gave a chromatographic logP of 4.46.
